Results reported in ChEMBL document CHEMBL5291721, “A preclinical secondary pharmacology resource illuminates target-adverse drug reaction associations of marketed drugs” (Nat Commun, 2023).

Key:
[1] = target: 5-hydroxytryptamine receptor 7 (Homo sapiens, UniProt P34969)
[2] = target: T1, Alpha-1A adrenergic receptor (Homo sapiens, UniProt P35348)
T1 sequence (P35348 whole entry): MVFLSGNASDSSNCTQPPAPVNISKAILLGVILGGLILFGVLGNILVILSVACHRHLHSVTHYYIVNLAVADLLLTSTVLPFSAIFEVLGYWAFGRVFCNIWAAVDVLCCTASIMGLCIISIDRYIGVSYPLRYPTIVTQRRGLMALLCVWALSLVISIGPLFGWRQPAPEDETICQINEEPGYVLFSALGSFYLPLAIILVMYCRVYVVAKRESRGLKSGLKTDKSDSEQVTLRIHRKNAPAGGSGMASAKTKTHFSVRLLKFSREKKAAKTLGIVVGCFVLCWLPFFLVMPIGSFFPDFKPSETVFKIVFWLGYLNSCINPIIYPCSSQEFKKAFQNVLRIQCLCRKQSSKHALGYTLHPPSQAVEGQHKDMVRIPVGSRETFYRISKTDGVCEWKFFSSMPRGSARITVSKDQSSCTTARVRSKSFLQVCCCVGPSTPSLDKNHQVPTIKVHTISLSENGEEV

[3] = target: T2, Alpha-2A adrenergic receptor (Homo sapiens, UniProt P08913)
T2 sequence (P08913 whole entry): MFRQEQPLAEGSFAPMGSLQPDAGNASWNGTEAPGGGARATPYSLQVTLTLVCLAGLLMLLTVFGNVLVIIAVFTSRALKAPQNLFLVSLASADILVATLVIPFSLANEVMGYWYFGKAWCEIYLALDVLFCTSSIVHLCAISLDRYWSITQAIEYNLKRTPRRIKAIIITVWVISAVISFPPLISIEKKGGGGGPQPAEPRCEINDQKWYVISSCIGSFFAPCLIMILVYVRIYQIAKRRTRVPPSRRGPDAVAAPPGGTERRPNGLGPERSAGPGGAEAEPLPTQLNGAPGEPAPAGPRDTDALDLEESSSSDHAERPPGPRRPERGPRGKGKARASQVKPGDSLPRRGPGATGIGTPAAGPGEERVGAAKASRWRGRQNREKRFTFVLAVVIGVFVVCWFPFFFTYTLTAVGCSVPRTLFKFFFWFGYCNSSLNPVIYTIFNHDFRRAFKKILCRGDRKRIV

[4] = target: Gamma-aminobutyric acid type B receptor subunit 1 (Homo sapiens, UniProt Q9UBS5)
[5] = target: T3, Muscarinic acetylcholine receptor M2 (Homo sapiens, UniProt P08172)
T3 sequence (P08172 whole entry): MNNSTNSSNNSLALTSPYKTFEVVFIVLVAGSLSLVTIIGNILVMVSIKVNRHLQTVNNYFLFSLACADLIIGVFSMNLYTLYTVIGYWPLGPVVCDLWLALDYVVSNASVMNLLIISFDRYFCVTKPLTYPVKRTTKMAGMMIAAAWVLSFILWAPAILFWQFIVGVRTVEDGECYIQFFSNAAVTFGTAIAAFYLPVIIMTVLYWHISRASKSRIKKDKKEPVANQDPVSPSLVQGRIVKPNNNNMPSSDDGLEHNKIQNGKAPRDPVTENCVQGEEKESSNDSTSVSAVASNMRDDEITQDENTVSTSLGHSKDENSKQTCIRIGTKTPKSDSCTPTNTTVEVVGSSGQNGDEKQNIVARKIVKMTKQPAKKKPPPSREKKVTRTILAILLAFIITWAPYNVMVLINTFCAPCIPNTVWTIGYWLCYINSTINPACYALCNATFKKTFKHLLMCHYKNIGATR

[6] = target: T4, Muscarinic acetylcholine receptor M1 (Homo sapiens, UniProt P11229)
T4 sequence (P11229 whole entry): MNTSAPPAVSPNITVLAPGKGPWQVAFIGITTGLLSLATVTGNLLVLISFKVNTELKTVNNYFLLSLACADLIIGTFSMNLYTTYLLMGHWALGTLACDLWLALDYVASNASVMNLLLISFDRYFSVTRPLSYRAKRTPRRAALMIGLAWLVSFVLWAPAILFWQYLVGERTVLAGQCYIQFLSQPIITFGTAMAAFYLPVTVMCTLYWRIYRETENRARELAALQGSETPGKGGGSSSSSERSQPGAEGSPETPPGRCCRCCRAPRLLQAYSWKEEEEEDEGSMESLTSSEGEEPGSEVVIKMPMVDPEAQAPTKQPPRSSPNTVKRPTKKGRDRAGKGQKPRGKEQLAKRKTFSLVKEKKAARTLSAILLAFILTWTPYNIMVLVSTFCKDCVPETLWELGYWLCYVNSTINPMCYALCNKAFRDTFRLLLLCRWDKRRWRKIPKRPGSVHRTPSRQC

Estrogen receptor beta = Estrogen receptor beta (Homo sapiens, UniProt Q92731)
[7] = target: T5, Corticotropin-releasing factor receptor 1 (Homo sapiens, UniProt P34998)
T5 sequence (P34998 whole entry): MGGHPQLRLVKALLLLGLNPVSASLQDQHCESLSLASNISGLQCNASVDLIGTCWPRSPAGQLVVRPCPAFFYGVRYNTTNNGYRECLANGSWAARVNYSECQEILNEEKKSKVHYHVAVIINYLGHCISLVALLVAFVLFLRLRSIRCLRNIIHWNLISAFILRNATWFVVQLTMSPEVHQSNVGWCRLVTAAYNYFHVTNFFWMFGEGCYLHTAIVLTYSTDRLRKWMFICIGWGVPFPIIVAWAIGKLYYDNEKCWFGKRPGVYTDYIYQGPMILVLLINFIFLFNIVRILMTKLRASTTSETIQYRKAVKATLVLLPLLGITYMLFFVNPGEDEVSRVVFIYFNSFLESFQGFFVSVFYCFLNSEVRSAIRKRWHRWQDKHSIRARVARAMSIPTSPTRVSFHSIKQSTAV

[8] = target: T6, Corticotropin-releasing factor receptor 2 (Homo sapiens, UniProt Q13324)
T6 sequence (Q13324 whole entry): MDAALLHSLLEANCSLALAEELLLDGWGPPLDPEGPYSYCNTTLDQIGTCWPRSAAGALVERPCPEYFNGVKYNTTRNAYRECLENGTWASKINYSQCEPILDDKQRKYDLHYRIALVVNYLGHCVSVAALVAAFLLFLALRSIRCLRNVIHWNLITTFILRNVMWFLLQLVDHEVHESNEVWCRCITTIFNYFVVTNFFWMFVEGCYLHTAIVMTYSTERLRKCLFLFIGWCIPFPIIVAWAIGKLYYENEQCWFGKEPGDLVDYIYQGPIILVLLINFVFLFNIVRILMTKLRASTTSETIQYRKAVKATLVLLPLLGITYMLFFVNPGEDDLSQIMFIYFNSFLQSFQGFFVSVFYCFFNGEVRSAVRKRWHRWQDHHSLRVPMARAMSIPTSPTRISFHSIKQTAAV
Note: assay procedure not described here.

5-hydroxytryptamine receptor 7, sequence (P34969 whole entry): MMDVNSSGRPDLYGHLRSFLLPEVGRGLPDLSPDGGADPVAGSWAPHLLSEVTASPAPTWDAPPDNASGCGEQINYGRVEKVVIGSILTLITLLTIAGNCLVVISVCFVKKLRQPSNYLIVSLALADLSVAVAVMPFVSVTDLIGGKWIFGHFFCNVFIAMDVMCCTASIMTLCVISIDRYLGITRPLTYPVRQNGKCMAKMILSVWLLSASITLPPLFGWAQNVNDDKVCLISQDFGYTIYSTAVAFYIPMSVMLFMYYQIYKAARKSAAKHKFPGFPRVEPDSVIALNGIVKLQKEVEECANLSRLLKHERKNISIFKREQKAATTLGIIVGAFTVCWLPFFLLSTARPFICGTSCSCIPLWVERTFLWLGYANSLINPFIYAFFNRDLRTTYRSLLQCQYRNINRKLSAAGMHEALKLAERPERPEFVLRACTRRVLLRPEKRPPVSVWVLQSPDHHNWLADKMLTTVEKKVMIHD
Gamma-aminobutyric acid type B receptor subunit 1, sequence (Q9UBS5 whole entry): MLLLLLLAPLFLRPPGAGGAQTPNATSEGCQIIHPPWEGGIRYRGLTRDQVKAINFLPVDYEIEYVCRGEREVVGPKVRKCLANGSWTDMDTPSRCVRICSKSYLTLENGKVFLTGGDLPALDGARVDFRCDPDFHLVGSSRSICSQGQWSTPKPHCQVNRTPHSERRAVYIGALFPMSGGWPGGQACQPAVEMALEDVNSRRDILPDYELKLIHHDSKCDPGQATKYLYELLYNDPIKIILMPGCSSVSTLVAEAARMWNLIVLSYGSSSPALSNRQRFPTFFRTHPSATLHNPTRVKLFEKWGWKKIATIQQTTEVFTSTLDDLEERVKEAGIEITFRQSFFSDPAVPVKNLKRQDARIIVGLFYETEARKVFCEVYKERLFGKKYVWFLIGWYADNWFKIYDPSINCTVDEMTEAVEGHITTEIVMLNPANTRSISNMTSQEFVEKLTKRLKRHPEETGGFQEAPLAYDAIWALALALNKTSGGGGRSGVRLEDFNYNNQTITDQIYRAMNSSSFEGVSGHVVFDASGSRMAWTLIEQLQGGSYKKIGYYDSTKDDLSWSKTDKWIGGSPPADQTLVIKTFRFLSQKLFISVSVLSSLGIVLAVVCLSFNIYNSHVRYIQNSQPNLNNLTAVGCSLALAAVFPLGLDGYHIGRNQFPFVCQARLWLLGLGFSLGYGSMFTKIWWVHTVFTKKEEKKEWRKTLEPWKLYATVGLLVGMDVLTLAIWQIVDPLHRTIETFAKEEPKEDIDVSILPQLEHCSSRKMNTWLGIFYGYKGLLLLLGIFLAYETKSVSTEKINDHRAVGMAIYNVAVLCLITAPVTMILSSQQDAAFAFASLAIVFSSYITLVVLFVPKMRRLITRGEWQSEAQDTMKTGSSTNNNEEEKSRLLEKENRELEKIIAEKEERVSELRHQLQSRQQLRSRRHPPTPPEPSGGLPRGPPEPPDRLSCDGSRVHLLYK
Estrogen receptor beta, sequence (Q92731 whole entry): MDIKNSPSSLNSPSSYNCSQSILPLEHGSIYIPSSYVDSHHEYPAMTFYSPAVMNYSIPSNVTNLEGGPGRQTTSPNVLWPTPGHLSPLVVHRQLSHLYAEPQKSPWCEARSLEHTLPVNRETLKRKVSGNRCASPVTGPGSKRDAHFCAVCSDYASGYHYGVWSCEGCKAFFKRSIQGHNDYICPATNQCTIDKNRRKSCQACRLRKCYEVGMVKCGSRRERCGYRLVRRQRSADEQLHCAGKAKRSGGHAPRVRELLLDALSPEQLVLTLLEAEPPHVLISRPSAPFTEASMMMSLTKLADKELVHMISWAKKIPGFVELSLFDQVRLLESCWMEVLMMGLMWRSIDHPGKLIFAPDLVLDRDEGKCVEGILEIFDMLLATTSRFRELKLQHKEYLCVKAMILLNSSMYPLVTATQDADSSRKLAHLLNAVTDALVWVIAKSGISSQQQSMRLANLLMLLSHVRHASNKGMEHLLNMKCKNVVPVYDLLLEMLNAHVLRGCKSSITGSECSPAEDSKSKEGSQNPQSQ

Compound | AC50 [1] [µM] | AC50 [2] [µM] | AC50 [3] [µM] | AC50 [4] [µM] | AC50 [5] [µM] | AC50 [6] [µM] | AC50 (Estrogen receptor beta) [µM] | AC50 [7] [µM] | AC50 [8] [µM]
O=C(/C=C/c1cccc(S(=O)(=O)Nc2ccccc2)c1)NO [BELINOSTAT] | > 10 | > 30 | > 10 | > 10 | > 10 | > 30 | – | – | –
CC(O)(CS(=O)(=O)c1ccc(F)cc1)C(=O)Nc1ccc(C#N)c(C(F)(F)F)c1 (centres undefined) [BICALUTAMIDE] | > 10 | – | > 10 | > 10 | > 10 | – | > 30 | > 30 | > 30
O=C(O)COCCN1CCN(C(c2ccccc2)c2ccc(Cl)cc2)CC1 (centres undefined) [CETIRIZINE] | – | – | > 10 | – | – | – | > 30 | > 30 | > 30
NC[C@H]1CC[C@H](C(=O)Oc2ccc(CCC(=O)O)cc2)CC1 [CETRAXATE] | – | > 30 | – | – | – | – | – | – | –
CC(=O)O[C@]1(C(C)=O)CC[C@H]2[C@@H]3C=C(Cl)C4=CC(=O)[C@@H]5C[C@@H]5[C@]4(C)[C@H]3CC[C@@]21C [CYPROTERONE ACETATE] | – | – | > 10 | – | > 10 | – | – | – | –
C[C@@H]1C[C@H]2[C@@H]3C[C@H](F)C4=CC(=O)C=C[C@]4(C)[C@@]3(F)[C@@H](O)C[C@]2(C)[C@@]1(OC(=O)c1ccco1)C(=O)SCF [FLUTICASONE FUROATE] | > 10 | – | > 10 | > 10 | > 10 | – | – | – | –
CN(C)CCCN1c2ccccc2CCc2ccccc21 [IMIPRAMINE] | > 10 | – | > 10 | – | 0.454 | – | > 30 | > 30 | > 30
CN(Cc1cnc2nc(N)nc(N)c2n1)c1ccc(C(=O)N[C@@H](CCC(=O)O)C(=O)O)cc1 [METHOTREXATE] | – | – | > 10 | – | > 10 | – | > 30 | > 30 | > 30
CN[C@@H](C)[C@@H](O)c1ccccc1 [PSEUDOEPHEDRINE] | – | – | > 10 | – | > 10 | – | > 30 | > 30 | > 30
O=S1(=O)CCN(CN2CCS(=O)(=O)NC2)CN1 [TAUROLIDINE] | – | > 30 | – | – | – | > 30 | – | – | –
COc1ccc2c(C(=S)N(C)CC(=O)O)cccc2c1C(F)(F)F [TOLRESTAT] | – | > 30 | – | – | – | > 30 | – | – | –
